From EP1247803A2, “Indolinone compounds suitable for modulation of protein kinases” (Sugen, Inc., priority 1996, dated 1998)

molecular target: T1, EGFR (Homo sapiens, UniProt P00533); test: EGFR ELISA assay (in vitro kinase activity, EGFR captured from A431 cell lysate); type: biochemical; set-up: concentration or dose not given beside the values
T1 construct: Add 7 ug A431 cell lysate per well (EGFR source); endogenous in cells; host or cells: A431
Method in brief: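 EGFR from A431 lysate was captured on anti-EGFR antibody-coated plates and preincubated with compounds for 30 min. Autophosphorylation ran 5 min with 3 uM ATP and 5 mM MnCl2 (final), stopped with 20 mM EDTA. Phosphotyrosine was detected by anti-pTyr ELISA with ABTS/H2O2, read at 410 nm.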

T1 sequence (P00533 25-1210): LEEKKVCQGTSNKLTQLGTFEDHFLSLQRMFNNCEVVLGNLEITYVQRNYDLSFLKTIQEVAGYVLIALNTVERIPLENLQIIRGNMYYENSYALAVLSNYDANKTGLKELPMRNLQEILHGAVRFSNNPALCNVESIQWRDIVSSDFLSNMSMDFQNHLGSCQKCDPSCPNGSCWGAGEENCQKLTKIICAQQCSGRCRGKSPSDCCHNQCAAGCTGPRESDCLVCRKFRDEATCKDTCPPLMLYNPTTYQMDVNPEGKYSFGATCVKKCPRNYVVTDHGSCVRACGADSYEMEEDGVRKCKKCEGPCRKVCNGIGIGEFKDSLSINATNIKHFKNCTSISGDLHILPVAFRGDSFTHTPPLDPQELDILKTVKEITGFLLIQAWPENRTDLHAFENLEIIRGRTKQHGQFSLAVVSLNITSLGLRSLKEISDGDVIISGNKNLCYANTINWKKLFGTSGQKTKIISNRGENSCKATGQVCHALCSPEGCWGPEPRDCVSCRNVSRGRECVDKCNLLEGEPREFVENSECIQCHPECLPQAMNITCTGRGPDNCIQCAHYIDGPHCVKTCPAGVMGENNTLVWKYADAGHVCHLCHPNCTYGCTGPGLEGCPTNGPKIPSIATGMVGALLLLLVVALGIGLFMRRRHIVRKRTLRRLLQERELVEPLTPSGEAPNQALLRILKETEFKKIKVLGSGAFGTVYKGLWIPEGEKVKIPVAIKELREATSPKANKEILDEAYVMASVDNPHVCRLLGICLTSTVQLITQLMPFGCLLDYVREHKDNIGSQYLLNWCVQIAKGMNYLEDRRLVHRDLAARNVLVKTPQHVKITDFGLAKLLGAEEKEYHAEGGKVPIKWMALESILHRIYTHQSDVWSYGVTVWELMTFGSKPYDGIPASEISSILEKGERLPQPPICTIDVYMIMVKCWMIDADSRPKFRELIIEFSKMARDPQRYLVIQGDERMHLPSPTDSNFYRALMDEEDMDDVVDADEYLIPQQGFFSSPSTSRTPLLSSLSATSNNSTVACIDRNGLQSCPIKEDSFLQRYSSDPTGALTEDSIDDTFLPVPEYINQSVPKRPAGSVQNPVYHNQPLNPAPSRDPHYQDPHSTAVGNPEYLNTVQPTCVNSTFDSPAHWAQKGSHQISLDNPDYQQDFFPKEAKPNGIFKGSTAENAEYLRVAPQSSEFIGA

Row | Structure (SMILES) | Biochem EGFR %Inhibition [%]
1 | Cc1ccc(C=C2C(=O)Nc3c(Br)cc(Br)cc32)s1 [10717/A07] | 20.2
2 | Cc1c(O)ccc(C=C2C(=O)Nc3c(Br)cc(Br)cc32)c1O [10718/A09] | -4.1
3 | O=C1Nc2c(Br)cc(Br)cc2C1=Cc1ccco1 [10718/A10] | 41.5
4 | O=C1Nc2c(Br)cc(Br)cc2C1=Cc1ccc([N+](=O)[O-])o1 [10718/A11] | 21.2
5 | CCOC(=O)c1c(C)[nH]c(C=C2C(=O)Nc3ccc(I)cc32)c1C [10718/B02] | 24.9
6 | COc1cc(Br)c(O)c(C=C2C(=O)Nc3ccc(I)cc32)c1 [10718/B03] | -0.2
7 | O=C1Nc2ccc(I)cc2C1=Cc1ccc2ccccc2c1O [10718/B04] | 8.5
8 | CCOC(=O)c1cc(C=C2C(=O)Nc3ccc(I)cc32)oc1C [10718/B06] | 28.5
9 | CNS(=O)(=O)c1ccc2c(c1)C(=Cc1cccc(C(F)(F)F)c1F)C(=O)N2 [10728/D07] | 2.4
10 | CNS(=O)(=O)c1ccc2c(c1)C(=Cc1cc(C(F)(F)F)ccc1F)C(=O)N2 [10728/D08] | 6.9
11 | CNS(=O)(=O)c1ccc2c(c1)C(=Cc1c(F)cccc1C(F)(F)F)C(=O)N2 [10728/D09] | -2.9
12 | CNS(=O)(=O)c1ccc2c(c1)C(=Cc1ccccc1OCC(=O)O)C(=O)N2 [10728/D10] | 18.6
13 | CNS(=O)(=O)c1ccc2c(c1)C(=Cc1cc(OC)c3c(c1)OCO3)C(=O)N2 [10728/D11] | 22.1
14 | COc1ccc(OC)c(C=C2C(=O)Nc3ccc(S(=O)(=O)Nc4ccc(C(F)(F)F)cc4)cc32)c1 [10728/E02] | 7.4
15 | COc1cccc(OC)c1C=C1C(=O)Nc2ccc(S(=O)(=O)Nc3ccc(C(F)(F)F)cc3)cc21 [10728/E03] | 9.5
16 | COc1cc(C=C2C(=O)Nc3ccc(S(=O)(=O)Nc4ccc(C(F)(F)F)cc4)cc32)cc(OC)c1 [10728/E04] | 10.1
17 | COc1cc(N(C)C)ccc1C=C1C(=O)Nc2ccc(S(=O)(=O)Nc3ccc(C(F)(F)F)cc3)cc21 [10728/E05] | 7.4
18 | O=C1Nc2ccc(S(=O)(=O)Nc3ccc(C(F)(F)F)cc3)cc2C1=Cc1ccc2c(c1)Cc1ccccc1-2 [10728/E06] | -4.7
19 | O=C1Nc2ccc(S(=O)(=O)Nc3ccc(C(F)(F)F)cc3)cc2C1=Cc1cccc(C(F)(F)F)c1F [10728/E07] | 21.8
20 | O=C1Nc2ccc(S(=O)(=O)Nc3ccc(C(F)(F)F)cc3)cc2C1=Cc1cc(C(F)(F)F)ccc1F [10728/E08] | 5.1
21 | O=C1Nc2ccc(S(=O)(=O)Nc3ccc(C(F)(F)F)cc3)cc2C1=Cc1c(F)cccc1C(F)(F)F [10728/E09] | 0.1
22 | O=C(O)COc1ccccc1C=C1C(=O)Nc2ccc(S(=O)(=O)Nc3ccc(C(F)(F)F)cc3)cc21 [10728/E10] | -20.8
23 | COc1cc(C=C2C(=O)Nc3ccc(S(=O)(=O)Nc4ccc(C(F)(F)F)cc4)cc32)cc2c1OCO2 [10728/E11] | -5.9
24 | COc1ccc(OC)c(C=C2C(=O)Nc3ccc(S(=O)(=O)NN4CCOCC4)cc32)c1 [10728/F02] | 4.4
25 | COc1ccc(OC)c(C=C2C(=O)Nc3ccc(CCCl)cc32)c1 [10728/G02] | -10.2
26 | COc1cccc(OC)c1C=C1C(=O)Nc2ccc(CCCl)cc21 [10728/G03] | -2.0
27 | COc1cc(C=C2C(=O)Nc3ccc(CCCl)cc32)cc(OC)c1 [10728/G04] | -8.2

Row | Structure (SMILES) | Biochem EGFR %Inhibition [%]
28 | COc1cc(N(C)C)ccc1C=C1C(=O)Nc2ccc(CCCl)cc21 [10728/G05] | 7.2
29 | O=C1Nc2ccc(CCCl)cc2C1=Cc1ccc2c(c1)Cc1ccccc1-2 [10728/G06] | -14.1
30 | O=C1Nc2ccc(CCCl)cc2C1=Cc1cccc(C(F)(F)F)c1F [10728/G07] | -12.3
31 | O=C1Nc2ccc(CCCl)cc2C1=Cc1cc(C(F)(F)F)ccc1F [10728/G08] | -5.7
32 | O=C1Nc2ccc(CCCl)cc2C1=Cc1c(F)cccc1C(F)(F)F [10728/G09] | -8.0
33 | O=C(O)COc1ccccc1C=C1C(=O)Nc2ccc(CCCl)cc21 [10728/G10] | -12.5
34 | COc1cc(C=C2C(=O)Nc3ccc(CCCl)cc32)cc2c1OCO2 [10728/G11] | 16.1
35 | COc1ccc2ccccc2c1C=C1C(=O)Nc2c(Br)cc(Br)cc21 [10729/A02] | 10.0
36 | COc1ccc(C=C2C(=O)Nc3c(Br)cc(Br)cc32)c2ccccc12 [10729/A03] | 27.0
37 | CSc1ccc(C=C2C(=O)Nc3c(Br)cc(Br)cc32)cc1 [10729/A04] | 58.8
38 | Cc1ccsc1C=C1C(=O)Nc2c(Br)cc(Br)cc21 [10729/A05] | 23.4
39 | O=C1Nc2c(Br)cc(Br)cc2C1=Cc1cccc(Oc2ccccc2)c1 [10729/A06] | 36.5
40 | O=C1Nc2c(Br)cc(Br)cc2C1=Cc1ccccn1 [10729/A07] | 49.0
41 | O=C1Nc2c(Br)cc(Br)cc2C1=Cc1cccnc1 [10729/A08] | 37.8
42 | O=C1Nc2c(Br)cc(Br)cc2C1=Cc1ccncc1 [10729/A09] | 25.7
43 | O=C1Nc2c(Br)cc(Br)cc2C1=Cc1ccc(N2CCCC2)cc1 [10729/A10] | 28.7
44 | O=C1Nc2c(Br)cc(Br)cc2C1=CC1C=CCCC1 (centres unmarked) [10729/A11] | 15.5
45 | COc1ccc2ccccc2c1C=C1C(=O)Nc2ccc(I)cc21 [10729/B02] | 34.9
46 | COc1ccc(C=C2C(=O)Nc3ccc(I)cc32)c2ccccc12 [10729/B03] | 38.2
47 | CSc1ccc(C=C2C(=O)Nc3ccc(I)cc32)cc1 [10729/B04] | 63.7
48 | Cc1ccsc1C=C1C(=O)Nc2ccc(I)cc21 [10729/B05] | 50.6
49 | O=C1Nc2ccc(I)cc2C1=Cc1cccc(Oc2ccccc2)c1 [10729/B06] | 56.9
50 | O=C1Nc2ccc(I)cc2C1=Cc1ccccn1 [10729/B07] | 69.0
51 | O=C1Nc2ccc(I)cc2C1=Cc1cccnc1 [10729/B08] | 53.2
52 | O=C1Nc2ccc(I)cc2C1=Cc1ccncc1 [10729/B09] | 51.6
53 | O=C1Nc2ccc(I)cc2C1=Cc1ccc(N2CCCC2)cc1 [10729/B10] | 68.3
54 | O=C1Nc2ccc(I)cc2C1=CC1C=CCCC1 (centres unmarked) [10729/B11] | 18.8

Row | Structure (SMILES) | Biochem EGFR %Inhibition [%]
55 | COc1ccc2ccccc2c1C=C1C(=O)Nc2ccc(Br)c(C)c21 [10729/C02] | 16.9
56 | COc1ccc(C=C2C(=O)Nc3ccc(Br)c(C)c32)c2ccccc12 [10729/C03] | 25.7
57 | CSc1ccc(C=C2C(=O)Nc3ccc(Br)c(C)c32)cc1 [10729/C04] | 35.9
58 | Cc1ccsc1C=C1C(=O)Nc2ccc(Br)c(C)c21 [10729/C05] | 21.8
59 | Cc1c(Br)ccc2c1C(=Cc1cccc(Oc3ccccc3)c1)C(=O)N2 [10729/C06] | 38.2
60 | Cc1c(Br)ccc2c1C(=Cc1ccccn1)C(=O)N2 [10729/C07] | 60.8
61 | Cc1c(Br)ccc2c1C(=Cc1cccnc1)C(=O)N2 [10729/C08] | 25.4
62 | Cc1c(Br)ccc2c1C(=Cc1ccncc1)C(=O)N2 [10729/C09] | 33.2
63 | Cc1c(Br)ccc2c1C(=Cc1ccc(N3CCCC3)cc1)C(=O)N2 [10729/C10] | 45.7
64 | Cc1c(Br)ccc2c1C(=CC1C=CCCC1)C(=O)N2 (centres unmarked) [10729/C11] | 35.9
65 | CNS(=O)(=O)c1ccc2c(c1)C(=Cc1c(OC)ccc3ccccc13)C(=O)N2 [10729/D02] | -5.7
66 | CNS(=O)(=O)c1ccc2c(c1)C(=Cc1ccc(OC)c3ccccc13)C(=O)N2 [10729/D03] | 15.5
67 | CNS(=O)(=O)c1ccc2c(c1)C(=Cc1ccc(SC)cc1)C(=O)N2 [10729/D04] | 18.8
68 | CNS(=O)(=O)c1ccc2c(c1)C(=Cc1sccc1C)C(=O)N2 [10729/D05] | 22.1
69 | CNS(=O)(=O)c1ccc2c(c1)C(=Cc1cccc(Oc3ccccc3)c1)C(=O)N2 [10729/D06] | 45.7
70 | CNS(=O)(=O)c1ccc2c(c1)C(=Cc1ccccn1)C(=O)N2 [10729/D07] | 21.4
71 | CNS(=O)(=O)c1ccc2c(c1)C(=Cc1cccnc1)C(=O)N2 [10729/D08] | 10.3
72 | CNS(=O)(=O)c1ccc2c(c1)C(=Cc1ccncc1)C(=O)N2 [10729/D09] | 22.1
73 | CNS(=O)(=O)c1ccc2c(c1)C(=Cc1ccc(N3CCCC3)cc1)C(=O)N2 [10729/D10] | 11.3
74 | CNS(=O)(=O)c1ccc2c(c1)C(=CC1C=CCCC1)C(=O)N2 (centres unmarked) [10729/D11] | 19.2
75 | COc1ccc2ccccc2c1C=C1C(=O)Nc2ccc(S(=O)(=O)Nc3ccc(C(F)(F)F)cc3)cc21 [10729/E02] | 8.0
76 | COc1ccc(C=C2C(=O)Nc3ccc(S(=O)(=O)Nc4ccc(C(F)(F)F)cc4)cc32)c2ccccc12 [10729/E03] | 20.1
77 | CSc1ccc(C=C2C(=O)Nc3ccc(S(=O)(=O)Nc4ccc(C(F)(F)F)cc4)cc32)cc1 [10729/E04] | 19.5
78 | Cc1ccsc1C=C1C(=O)Nc2ccc(S(=O)(=O)Nc3ccc(C(F)(F)F)cc3)cc21 [10729/E05] | 12.6
79 | O=C1Nc2ccc(S(=O)(=O)Nc3ccc(C(F)(F)F)cc3)cc2C1=Cc1cccc(Oc2ccccc2)c1 [10729/E06] | 43.7
80 | O=C1Nc2ccc(S(=O)(=O)Nc3ccc(C(F)(F)F)cc3)cc2C1=Cc1ccccn1 [10729/E07] | 26.7
